Laboratory results taken from patent publication US4665169A, “Carbapenem antibiotics” (Bristol-Myers Company, priority 1985, dated 1987).
≈ marks a conversion by molar mass, not a printed value. Like-named read-outs stand apart in the source and are kept apart here. One block for each molecule: values may come before it.

Tests used:
P. aeruginosa A9843a = assay: In vivo activity, 50% protective dose in infected mice; conditions: Pseudomonas aeruginosa, im, 120 h, i.m., immediately and 2 hour post-infection, deaths over five days, read-out: PD50 (50% protective dose)
Procedure: BHI broth (9.0 ml) was inoculated with a loopful of thawed stock suspension of P. aeruginosa A9843a and incubated for 18 hr at 37° C. A volume of 0.5 ml of the 18 hr culture was added to 20 ml BHI broth and incubated for 3 hr. with constant shaking at 37° C. A 1/10,000 dilution of the shaker culture was prepared in 0.4% hog gastric mucin. Mice were infected by the intraperitoneal route with 0.5 ml of the bacterial suspension (corresponding to 6.0×10^4 viable cells/mouse).
Each mouse received a volume of 0.2 ml intramuscularly. Deaths were recorded over a period of five days following infection at which time the PD50 for the compound was determined by estimation of the 50% end-point using the probit analysis plot.

S. faecalis A20688 = assay: In vitro antibacterial activity, MIC by tube dilution; assay type: cell-based; conditions: overnight 37° C., Nutrient Broth
E. cloacae A-9656 = assay: as above; assay type: cell-based; conditions: Enterobacter cloacae, A9656, Lot# 1794-27; overnight 37° C., Nutrient Broth
S. aureus A-9537 [1] = assay: as above; assay type: cell-based; conditions: overnight 37° C., Nutrient Broth
E. coli A15119 = assay: as above; assay type: cell-based; conditions: Escherichia coli, overnight 37° C., Nutrient Broth
P. aeruginosa A-9843A = assay: as above; assay type: cell-based; conditions: overnight 37° C., Nutrient Broth
K. pneumoniae A20468 = assay: as above; assay type: cell-based; conditions: Klebsiella pneumoniae, A20468, Lot# 1794-27; overnight 37° C., Nutrient Broth
S. pyogenes A-9604 = assay: as above; assay type: cell-based; conditions: overnight 37° C., Nutrient Broth
S. marcescens A20019 = assay: as above; assay type: cell-based; conditions: overnight 37° C., Nutrient Broth
[2] = Blood levels in mice after intramuscular dosing; assay type: in vivo; conditions: mouse, im, 20 mg/kg; for AUC / Cmax / Tmax / half-life: 20 mg/kg i.m.; for concentration at 10 min: 10 min after 20 mg/kg i.m.; for concentration at 20 min: 20 min after 20 mg/kg i.m.; for concentration at 0.5 h: 30 min after 20 mg/kg i.m.; for concentration at 0.75 h: 45 min after 20 mg/kg i.m.; for concentration at 1 h: 60 min after 20 mg/kg i.m.; for concentration at 1.5 h: 90 min after 20 mg/kg i.m.
Procedure: For the determination of blood levels, two groups of mice were used. Each group consisted of four 20 g mice. Prior to dosing (5-10 min.) one of the groups received an i.p. injection of a dipeptidase inhibitor (BCH-1) at a level of 10 mg/kg.

[3] = tested on: P. aeruginosa (Carbenicillin-resistant) A21213; assay: microbe, parasite or virus in culture; conditions: Pseudomonas aeruginosa
[4] = tested on: S. aureus (Penicillin-resistant) A-9606; assay: In vitro antibacterial activity, MIC by tube dilution; assay type: cell-based; conditions: Staphylococcus aureus, Nutrient Broth
Urinary recovery in mice = assay type: in vivo; conditions: mouse, urine; for dose excreted at 3 h: 0-3 hr.
Procedure: Two groups of mice were used for the urinary recovery evaluation. Each group consisted of four 20 g mice. Prior to dosing (5-10 minutes) one of the groups received an i.p. injestion of a dipeptidase inhibitor (BCH-1) at a level of 10 mg/kg. Following dosing, animals were placed in individual metabolism cages and the urine collected over ice at intervals of 0-3 and 3-6 hr. Animals were fasted overnight and a dextrose-amino acid solution was available ad libitum starting one hour before drug administration through six hours of urine collection. Urine samples were assayed for biological activity using sensitive assay plates containing B. subtilis ATCC 6633.

S. pneumoniae A-9585 = assay: In vitro antibacterial activity, MIC by tube dilution; assay type: cell-based; conditions: Streptococcus pneumoniae, overnight 37° C., Nutrient Broth
K. pneumoniae A-9664 = assay: as above; assay type: cell-based; conditions: Klebsiella pneumoniae, A9664; Lot# 1794-20; overnight 37° C., Nutrient Broth
P. mirabilis A-9900 = assay: as above; assay type: cell-based; conditions: overnight 37° C., Nutrient Broth
S. aureus A-9537 [5] = assay: In vitro antibacterial activity, MIC by tube dilution, 50% serum; assay type: cell-based
P. vulgaris A21559 = assay: In vitro antibacterial activity, MIC by tube dilution; assay type: cell-based; conditions: overnight 37° C., Nutrient Broth
[6] = tested on: P. aeruginosa (Carbenicillin-resistant) A21213; conditions: Lot# 1794-27, overnight 37° C., Nutrient Broth
E. coli A20341-1 = assay: In vitro antibacterial activity, MIC by tube dilution; assay type: cell-based; conditions: Escherichia coli, overnight 37° C., Nutrient Broth
E. cloacae A-9659 = assay: as above; assay type: cell-based; conditions: Enterobacter cloacae, A9659, Lot# 1794-27; overnight 37° C., Nutrient Broth
[7] = Half-life in pH 7.4 biological buffer; assay type: physicochemical; conditions: 37° C.
Procedure: To a cooled (5° C.) solution of (5R,6S)p-nitrobenzyl-6-(1^1 R-hydroxyethyl)-4R-methyl-3-(1-methyl-4-thiatetrahydrothiopyranium)-7-oxo- 1-azabicyclo[3.2.0]hept-2-ene-2-carboxyl-diphenylphosphate (2.40 g, 3.23 mmol) in tetrahydrofuran (240 mL) and 0.05M pH 7.0 phosphate buffer (240 mL) was added ether (240 mL) and 10% Pd/C (2.4 g). The mixture was hydrogenated in a Paar apparatus at 45 psi H2 at 15° C. for 1 hour. The solution was then filtered through glass fiber paper and the catalyst was washed with water (25 mL). The aqueous phase of the filtrate was washed with ether (2×100 mL) and purged under vacuum to remove any trace of organic solvent. The product was purified by reversed phase chromatography on μBondapak C-18 silica gel (100 g) using mixtures of acetonitrile-water as the eluent (10% CH3 CN--H2 O, quantity mL; 0%, 500 mL; 2%, 500 mL; 4%, 500 mL; 10%, 250 mL) to give 1.08 g of impure proudct. After lyophilization, this product and a 0.020 g sample from another experiment (starting from 0.067 mmol of the ester) was purified by hplc (hplc data re: C18 μBondapak, using 5% CH3 CN--H2 O at 4 mL/min, R. I. detector) to give 328 mg. […]

[8] = tested on: various Pseudomonas species; conditions: prior art statement; cited from earlier work

SMILES: C[C@@H](O)[C@H]1C(=O)N2C(C(=O)[O-])=C(SC3CC[S+](C)CC3)C[C@H]12 (some centres unmarked) [Example 1]
ED50 (P. aeruginosa A9843a): 0.71 mg/kg
MIC (S. faecalis A20688; Enterococcus faecalis, A20688, Lot# 1794-20, read-out: MIC): 0.5 µg/mL (≈ 1.46 µM)
MIC (S. faecalis A20688; Lot# 1794-27): 0.5 µg/mL (≈ 1.46 µM)
MIC (E. cloacae A-9656): 0.25 µg/mL (≈ 0.728 µM)
MIC (S. aureus A-9537 [1]; Lot# 1794-27): 0.008 µg/mL (≈ 0.0233 µM)
MIC (S. aureus A-9537 [1]; Staphylococcus aureus, A9537, Lot# 1794-20, read-out: MIC): 0.008 µg/mL (≈ 0.0233 µM)
MIC (E. coli A15119; A15119, Lot# 1794-20): 0.008 µg/mL (≈ 0.0233 µM)
MIC (E. coli A15119; A15119, Lot# 1794-27): 0.016 µg/mL (≈ 0.0466 µM)
MIC (P. aeruginosa A-9843A; Lot# 1794-27): 2 µg/mL (≈ 5.82 µM)
MIC (P. aeruginosa A-9843A; Pseudomonas aeruginosa, A9843A, Lot# 1794-20, read-out: MIC): 2 µg/mL (≈ 5.82 µM)
MIC (K. pneumoniae A20468): 0.25 µg/mL (≈ 0.728 µM)
MIC (S. pyogenes A-9604; Lot# 1794-27): 0.004 µg/mL (≈ 0.0116 µM)
MIC (S. pyogenes A-9604; Streptococcus pyogenes, A9604, Lot# 1794-20, read-out: MIC): 0.004 µg/mL (≈ 0.0116 µM)
MIC (S. marcescens A20019; Lot# 1794-27): 0.03 µg/mL (≈ 0.0873 µM)
MIC (S. marcescens A20019; Serratia marcescens, A20019, Lot# 1794-20, read-out: MIC): 0.03 µg/mL (≈ 0.0873 µM)
AUC ([2]; with BCH-1 10 mg/kg i.p.): 10900 ng·h/mL
Cmax ([2]; with BCH-1 10 mg/kg i.p.): 16100 ng/mL
Tmax ([2]; with BCH-1 10 mg/kg i.p.): 20 min
half-life ([2]; with BCH-1 10 mg/kg i.p.): 10 min
AUC ([2]; without BCH-1): 6800 ng·h/mL
Cmax ([2]; without BCH-1): 15400 ng/mL
Tmax ([2]; without BCH-1): 10 min
half-life ([2]; without BCH-1): 9 min
concentration at 10 min ([2]; with BCH-1 10 mg/kg i.p.): 15400 ng/mL
concentration at 10 min ([2]; without BCH-1): 15400 ng/mL
concentration at 20 min ([2]; with BCH-1 10 mg/kg i.p.): 16100 ng/mL
concentration at 20 min ([2]; without BCH-1): 11400 ng/mL
concentration at 0.5 h ([2]; with BCH-1 10 mg/kg i.p.): 12600 ng/mL
concentration at 0.5 h ([2]; without BCH-1): 7200 ng/mL
concentration at 0.75 h ([2]; with BCH-1 10 mg/kg i.p.): 7400 ng/mL
concentration at 0.75 h ([2]; without BCH-1): 2900 ng/mL
concentration at 1 h ([2]; with BCH-1 10 mg/kg i.p.): 3000 ng/mL
concentration at 1 h ([2]; without BCH-1): 700 ng/mL
concentration at 1.5 h ([2]; with BCH-1 10 mg/kg i.p.): 300 ng/mL
concentration at 1.5 h ([2]; without BCH-1): 300 ng/mL
MIC [3]: 0.25 µg/mL (≈ 0.728 µM)
MIC ([4]; Lot# 1794-20, overnight 37° C.): 0.016 µg/mL (≈ 0.0466 µM)
MIC ([4]; Lot# 1794-27, overnight 37° C.): 0.03 µg/mL (≈ 0.0873 µM)
dose excreted at 3 h (Urinary recovery in mice; with BCH-1 10 mg/kg i.p., read-out: Percent Recovered (urine)): 67%
dose excreted at 3 h (Urinary recovery in mice; without BCH-1, read-out: Percent Recovered (urine)): 44%
dose excreted at 6 h (Urinary recovery in mice; 0-6 hr., with BCH-1 10 mg/kg i.p., read-out: Percent Recovered (urine)): 67.1%
dose excreted at 6 h (Urinary recovery in mice; 0-6 hr., without BCH-1, read-out: Percent Recovered (urine)): 44.2%
dose excreted at 6 h (Urinary recovery in mice; 3-6 hr., with BCH-1 10 mg/kg i.p., read-out: Percent Recovered (urine)): 0.1%
dose excreted at 6 h (Urinary recovery in mice; 3-6 hr., without BCH-1, read-out: Percent Recovered (urine)): 0.2%
MIC (S. pneumoniae A-9585; A9585, Lot# 1794-20): 0.001 µg/mL (≈ 0.00291 µM)
MIC (S. pneumoniae A-9585; A9585, Lot# 1794-27): 0.002 µg/mL (≈ 0.00582 µM)
MIC (K. pneumoniae A-9664): 0.03 µg/mL (≈ 0.0873 µM)
MIC (P. mirabilis A-9900; Lot# 1794-27): 0.016 µg/mL (≈ 0.0466 µM)
MIC (P. mirabilis A-9900; Proteus mirabilis, A9900, Lot# 1794-20, read-out: MIC): 0.016 µg/mL (≈ 0.0466 µM)
MIC (S. aureus A-9537 [5]; Lot# 1794-27, overnight 37° C.): 0.016 µg/mL (≈ 0.0466 µM)
MIC (S. aureus A-9537 [5]; Staphylococcus aureus, A9537, Lot# 1794-20, overnight 37° C., read-out: MIC): 0.016 µg/mL (≈ 0.0466 µM)
MIC (P. vulgaris A21559; Lot# 1794-27): 0.016 µg/mL (≈ 0.0466 µM)
MIC (P. vulgaris A21559; Proteus vulgaris, A21559, Lot# 1794-20, read-out: MIC): 0.016 µg/mL (≈ 0.0466 µM)
MIC [6]: 0.25 µg/mL (≈ 0.728 µM)
MIC (E. coli A20341-1; A203411, Lot# 1794-20): 0.016 µg/mL (≈ 0.0466 µM)
MIC (E. coli A20341-1; A203411, Lot# 1794-27): 0.03 µg/mL (≈ 0.0873 µM)
MIC (E. cloacae A-9659): 0.25 µg/mL (≈ 0.728 µM)

half-life [7]: 1800 min
SMILES: C[C@@H](O)[C@H]1C(=O)N2C(C(=O)[O-])=C(SC3CC[S+](C)CC3)[C@H](C)[C@H]12 (stereo partly drawn) [Example 2, (5R,6S)-6-(1R-hydroxyethyl)-4R-methyl-3-(1-methyl-4-thiatetrahydrothiopyranium)-7-oxo-1-azabicyclo[3.2.0]-hept-2-ene-2-carboxylate]

SMILES: C[C@@H](O)[C@H]1C(=O)N2C(C(=O)O)=C(SCCN)C[C@H]12 [Thienamycin, thienamycin]
activity against various Pseudomonas species [8]: notable activity
